The text below walks through data of ChEMBL document CHEMBL5331045, “Recent advances in β-lactamase inhibitor chemotypes and inhibition modes” (Eur J Med Chem, 2022).

The nature of test [1]: Binding affinity to TEM30 (unknown origin) assessed as inhibition constant. The arrangement: species or system Homo sapiens.
Test [2] is described as follows: Binding affinity to N289A (unknown origin) assessed as inhibition constant. The arrangement: species or system Homo sapiens.
Test [3] can be described thus: Binding affinity to AmpC (unknown origin) assessed as inhibition constant. Also on record: species or system Homo sapiens.
A short description of test [4]: Binding affinity to TEM1 (unknown origin) assessed as inhibition constant. The arrangement: species or system Homo sapiens.
For test [5], the system named is Escherichia coli. Description: Antimicrobial activity against Escherichia coli expressing CMY-2 in presence of piperacillin. The format is functional.
Test [6] deals with Escherichia coli. Description: Antimicrobial activity against Escherichia coli expressing KPC-2 in presence of piperacillin. The test is classed as functional.
Test [7] relates to Escherichia coli. Description: Antimicrobial activity against Escherichia coli expressing OXA-40 in presence of piperacillin. The format is functional.
Test [8] has as its system Escherichia coli. Description: Antimicrobial activity against Escherichia coli expressing OXA-23 in presence of piperacillin. The test is classed as functional.
The test system of test [9] is Escherichia coli. Description: Antimicrobial activity against Escherichia coli expressing AmpC in presence of piperacillin. The test is classed as functional.
In test [10] the test system is Escherichia coli. The experiment in a line: Antimicrobial activity against Escherichia coli expressing OXA-48 in presence of piperacillin. The test is classed as functional.
Test [11] has as its system Escherichia coli. The experiment in a line: Antimicrobial activity against Escherichia coli expressing SHV-12 in presence of piperacillin. The test is classed as functional.
The subject of test [12] is Escherichia coli. Description: Antimicrobial activity against Escherichia coli expressing CTX-M-15 in presence of piperacillin. The format is functional.
Test [13] deals with Escherichia coli. Description: Antimicrobial activity against Escherichia coli expressing TEM1 in presence of piperacillin. The test is classed as functional.
Test [14] relates to Escherichia coli. The experiment in a line: Antimicrobial activity against Escherichia coli expressing OXA-10 in presence of piperacillin. The format is functional.
For test [15], the system named is Escherichia coli. Description: Antimicrobial activity against Escherichia coli expressing TEM10 in presence of piperacillin. The format is functional.
The subject of test [16] is Escherichia coli. Description: Antimicrobial activity against Escherichia coli expressing DHA-1 in presence of piperacillin. The format is functional.
Test [17] deals with Beta-lactamase (Escherichia coli K-12, UniProt P00811). Description: Binding affinity to Escherichia coli AmpC assessed as inhibition constant using nitrocefin as substrate by microplate reader analysis.
Beta-lactamase (Escherichia coli K-12, UniProt P00811), sequence (P00811 whole entry): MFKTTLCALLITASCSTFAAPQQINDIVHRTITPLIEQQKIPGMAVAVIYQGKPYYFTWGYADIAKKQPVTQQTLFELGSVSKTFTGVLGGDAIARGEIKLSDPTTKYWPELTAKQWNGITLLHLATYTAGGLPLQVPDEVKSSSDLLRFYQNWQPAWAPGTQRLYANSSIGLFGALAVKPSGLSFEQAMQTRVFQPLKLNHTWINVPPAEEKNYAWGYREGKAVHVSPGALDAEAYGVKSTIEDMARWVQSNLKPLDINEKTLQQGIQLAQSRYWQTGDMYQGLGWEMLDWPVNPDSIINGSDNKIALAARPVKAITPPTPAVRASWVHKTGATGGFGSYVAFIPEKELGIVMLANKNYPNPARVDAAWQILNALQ
Test [18] has as its target T1, Beta-lactamase TEM-1 (Escherichia coli, UniProt Q4GY26). Description: Binding affinity to Escherichia coli TEM1 assessed as inhibition constant using nitrocefin as substrate by microplate reader analysis.
The nature of test [19]: Binding affinity to Escherichia coli OXA-48 assessed as inhibition constant using nitrocefin as substrate by microplate reader analysis.
Test [20] can be described thus: Binding affinity to Escherichia coli SHV-2 assessed as inhibition constant using nitrocefin as substrate by microplate reader analysis.
A further test has as its target Beta-lactamase CTX-M-27 (Escherichia coli, UniProt Q840M4). The experiment in a line: Binding affinity to Escherichia coli CTX-M-27 assessed as inhibition constant using nitrocefin as substrate by microplate reader analysis.
The nature of test [21]: Binding affinity to Escherichia coli CTX-M-15 assessed as inhibition constant using nitrocefin as substrate by microplate reader analysis.
The nature of test [22]: Binding affinity to Escherichia coli CTX-M-9 assessed as inhibition constant using nitrocefin as substrate by microplate reader analysis.
Test [23] addresses T2, Beta-lactamase CTX-M-14 (Escherichia coli, UniProt Q9L5C7). Description: Binding affinity to Escherichia coli CTX-M-14 assessed as inhibition constant using nitrocefin as substrate by microplate reader analysis.
For test [24], the target named is Class A carbapenemase KPC-2 (Escherichia coli, UniProt A8DS27). The experiment in a line: Binding affinity to Escherichia coli KPC-2 assessed as inhibition constant using nitrocefin as substrate by microplate reader analysis.
Class A carbapenemase KPC-2, sequence (A8DS27 whole entry): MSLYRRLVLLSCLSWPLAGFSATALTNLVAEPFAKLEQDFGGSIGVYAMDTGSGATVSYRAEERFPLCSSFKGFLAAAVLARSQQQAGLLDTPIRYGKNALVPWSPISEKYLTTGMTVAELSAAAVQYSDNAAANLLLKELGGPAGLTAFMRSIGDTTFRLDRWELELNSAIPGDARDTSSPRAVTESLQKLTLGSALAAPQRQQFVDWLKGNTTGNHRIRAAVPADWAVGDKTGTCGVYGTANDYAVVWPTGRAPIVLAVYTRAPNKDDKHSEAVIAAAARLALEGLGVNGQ
A short description of test [25]: Binding affinity to beta-lactamase AmpC (unknown origin) assessed as inhibition constant by measuring nitrocefin hydrolysis by spectrometric analysis. Also on record: species or system Homo sapiens.
The nature of test [26]: Inhibition of Enterobacter KPC-2 incubated for 15 mins.
Test [27] can be described thus: Inhibition of Enterobacter CTX-M-15 incubated for 15 mins.
Test [28] is described as follows: Inhibition of Enterobacter SHV-5 incubated for 15 mins.
The nature of test [29]: Inhibition of Enterobacter VIM-2 incubated for 15 mins.
Test [30] is described as follows: Inhibition of Enterobacter OXA-1 incubated for 15 mins.
Test [31] can be described thus: Inhibition of Enterobacter NDM-1 incubated for 15 mins.
A short description of test [32]: Inhibition of Enterobacter IMP-1 incubated for 15 mins.
Test [33] in a line: Inhibition of Pseudomonas aeruginosa OXA-24.
Test [34] is described as follows: Inhibition of Pseudomonas aeruginosa KPC2.
Test [35] has as its target Beta-lactamase (Pseudomonas aeruginosa (strain ATCC 15692 / PAO1 / 1C / PRS 101 / LMG12228), UniProt P24735). The experiment in a line: Inhibition of Pseudomonas aeruginosa AmpC.
The target of test [36] is T3, Metallo-beta-lactamase type 2 (Bacteria, UniProt C7C422). The experiment in a line: Inhibition of NDM1 (unknown origin) using cefazolin as substrate.
T3 sequence (C7C422 whole entry): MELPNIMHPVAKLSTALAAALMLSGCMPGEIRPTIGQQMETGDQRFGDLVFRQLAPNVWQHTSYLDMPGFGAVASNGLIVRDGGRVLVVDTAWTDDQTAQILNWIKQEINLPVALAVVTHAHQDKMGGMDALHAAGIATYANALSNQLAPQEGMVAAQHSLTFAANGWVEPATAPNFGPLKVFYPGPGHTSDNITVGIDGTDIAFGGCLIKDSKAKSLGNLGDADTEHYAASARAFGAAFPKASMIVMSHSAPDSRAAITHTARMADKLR
Test [37] can be described thus: Inhibition of IMP1 (unknown origin) using cefazolin as substrate. The arrangement: species or system Homo sapiens.
A short description of test [38]: Inhibition of Imis (unknown origin) using cefazolin as substrate. Also on record: species or system Homo sapiens.
Test [39] in a line: Inhibition of L1 (unknown origin) using cefazolin as substrate. Also on record: species or system Homo sapiens.
The nature of test [40]: Inhibition of VIM2 (unknown origin). The arrangement: species or system Bacteria.
The nature of test [41]: Inhibition of IMP1 (unknown origin). Also on record: species or system Bacteria.
For another test, the target named is Beta-lactamase L1 (Stenotrophomonas maltophilia, UniProt P52700). Description: Inhibition of Stenotrophomonas maltophilia L1 preincubated for 30 mins followed by nitrocefin solution measured by UV based microtitre plate analysis.
Beta-lactamase L1, sequence (P52700 whole entry): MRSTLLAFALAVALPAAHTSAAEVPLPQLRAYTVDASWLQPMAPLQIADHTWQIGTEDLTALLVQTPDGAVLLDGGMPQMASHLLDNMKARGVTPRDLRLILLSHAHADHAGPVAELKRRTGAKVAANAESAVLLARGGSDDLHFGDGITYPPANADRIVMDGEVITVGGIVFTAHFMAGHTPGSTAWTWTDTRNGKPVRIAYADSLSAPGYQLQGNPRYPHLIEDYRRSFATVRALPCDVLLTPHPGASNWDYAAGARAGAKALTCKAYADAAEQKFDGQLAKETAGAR
Test [42] in a line: Inhibition of IMP28 (unknown origin) using fluorescent cephalosporin FC5 as substrate incubated for 15 mins followed by substrate addition measured by fluorescence based analysis. The arrangement: species or system Homo sapiens.
Test [43] addresses T3, Metallo-beta-lactamase type 2. The experiment in a line: Inhibition of NDM1 (unknown origin) using fluorescent cephalosporin FC5 as substrate incubated for 15 mins followed by substrate addition measured by fluorescence based analysis.
The nature of test [44]: Inhibition of VIM2 (unknown origin) using fluorescent cephalosporin FC5 as substrate incubated for 15 mins followed by substrate addition measured by fluorescence based analysis. Also on record: species or system Homo sapiens.
A further test addresses Beta-lactamase OXA-1 (Escherichia coli, UniProt P13661). Description: Inhibition of Escherichia coli beta-lactamase OXA-1.
Test [45] has as its target T2, Beta-lactamase CTX-M-14. The experiment in a line: Inhibition of Escherichia coli beta-lactamase CTX-M-14.
The target in test [46] is Beta-lactamase (Enterobacter cloacae, UniProt P05364). The experiment in a line: Inhibition of Enterobacter cloacae AmpC.
Beta-lactamase (Enterobacter cloacae, UniProt P05364), sequence (P05364 whole entry): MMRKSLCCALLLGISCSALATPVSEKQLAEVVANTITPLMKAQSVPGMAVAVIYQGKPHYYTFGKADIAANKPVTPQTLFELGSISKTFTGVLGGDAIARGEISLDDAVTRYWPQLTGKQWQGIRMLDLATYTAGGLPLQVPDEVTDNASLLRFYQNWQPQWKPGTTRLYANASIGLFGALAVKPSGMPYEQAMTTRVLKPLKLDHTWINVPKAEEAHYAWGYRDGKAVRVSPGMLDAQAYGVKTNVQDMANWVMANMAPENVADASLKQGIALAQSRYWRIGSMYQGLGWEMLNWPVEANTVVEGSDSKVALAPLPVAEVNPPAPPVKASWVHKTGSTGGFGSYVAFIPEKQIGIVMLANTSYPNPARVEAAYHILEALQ
Test [47] is described as follows: Inhibition of Escherichia coli beta-lactamase TEM-10.
Test [48] is described as follows: Inhibition of Escherichia coli beta-lactamase CTX-M-44.
Test [49] is described as follows: Inhibition of Aeromonas hydrophila IMP1 preincubated for 30 mins followed by nitrocefin solution measured by UV based microtitre plate analysis.
Test [50] can be described thus: Inhibition of Escherichia coli beta-lactamase CMY-2.
Test [51] is described as follows: Inhibition of Escherichia coli beta-lactamase CTX-M-15.
Test [52] in a line: Inhibition of Pseudomonas aeruginosa beta-lactamase OXA-2.
Another test addresses Beta-lactamase OXA-23 (Acinetobacter baumannii, UniProt Q9L4P2). The experiment in a line: Inhibition of Acinetobacter baumannii beta-lactamase OXA-23.
In test [53] the target is T4, Carbapenem-hydrolyzing beta-lactamase KPC (Klebsiella pneumoniae, UniProt Q9F663). Description: Inhibition of Klebsiella pneumoniae beta-lactamase KPC-2.
T4 sequence (Q9F663 whole entry): as the sequence (A8DS27 whole entry) above
Test [54] addresses T1, Beta-lactamase TEM-1. Description: Inhibition of Escherichia coli beta-lactamase TEM-1.
Test [55] can be described thus: Inhibition of Klebsiella pneumoniae beta-lactamase CMY-2 using nitrocefin as substrate measured after 20 mins.
Test [56] addresses T4, Carbapenem-hydrolyzing beta-lactamase KPC. Description: Inhibition of Klebsiella pneumoniae beta-lactamase KPC-2 using nitrocefin as substrate measured after 20 mins.
A short description of test [57]: Inhibition of Escherichia coli beta-lactamase CTX-M-15 using nitrocefin as substrate measured after 20 mins.
Test [58] is described as follows: Binding affinity to Acinetobacter derived cephalosporinase 7 (D24-K383 residues) assessed as inhibition constant.
The nature of test [59]: Inhibition of KPC-2 (unknown origin). Also on record: species or system Homo sapiens.
A short description of test [60]: Binding affinity to CTX-M-14 (unknown origin) assessed as inhibition constant. The arrangement: species or system Homo sapiens.
Test [61] can be described thus: Binding affinity to KPC-2 (unknown origin) assessed as inhibition constant. The arrangement: species or system Homo sapiens.

T2 sequence (Q9L5C7 whole entry): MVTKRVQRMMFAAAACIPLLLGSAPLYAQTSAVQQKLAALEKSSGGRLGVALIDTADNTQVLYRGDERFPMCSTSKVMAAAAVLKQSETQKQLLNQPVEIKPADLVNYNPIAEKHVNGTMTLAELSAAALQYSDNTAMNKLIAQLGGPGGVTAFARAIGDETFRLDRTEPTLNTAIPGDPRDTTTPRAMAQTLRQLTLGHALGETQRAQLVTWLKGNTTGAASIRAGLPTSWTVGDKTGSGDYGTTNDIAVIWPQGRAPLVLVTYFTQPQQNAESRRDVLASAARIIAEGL
T1 sequence (Q4GY26 whole entry): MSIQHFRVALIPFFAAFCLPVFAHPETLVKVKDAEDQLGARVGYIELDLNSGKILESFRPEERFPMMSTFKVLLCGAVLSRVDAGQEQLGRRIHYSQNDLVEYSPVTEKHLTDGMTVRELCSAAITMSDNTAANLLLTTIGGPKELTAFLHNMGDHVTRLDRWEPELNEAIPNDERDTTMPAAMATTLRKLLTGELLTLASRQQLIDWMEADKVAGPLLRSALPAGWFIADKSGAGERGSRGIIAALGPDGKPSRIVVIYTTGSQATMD
Beta-lactamase OXA-1, sequence (P13661 whole entry): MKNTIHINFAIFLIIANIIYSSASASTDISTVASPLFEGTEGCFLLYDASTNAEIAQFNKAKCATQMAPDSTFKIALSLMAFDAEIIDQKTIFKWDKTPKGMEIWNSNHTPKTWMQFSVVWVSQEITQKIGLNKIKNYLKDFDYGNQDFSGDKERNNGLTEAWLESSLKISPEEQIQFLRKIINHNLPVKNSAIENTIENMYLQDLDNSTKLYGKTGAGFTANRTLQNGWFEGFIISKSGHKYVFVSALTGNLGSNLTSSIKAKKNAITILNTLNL
Beta-lactamase CTX-M-27, sequence (Q840M4 whole entry): as the sequence (Q9L5C7 whole entry) above, with D242G counted along it
Beta-lactamase (Pseudomonas aeruginosa (strain ATCC 15692 / PAO1 / 1C / PRS 101 / LMG12228), UniProt P24735), sequence (P24735 whole entry): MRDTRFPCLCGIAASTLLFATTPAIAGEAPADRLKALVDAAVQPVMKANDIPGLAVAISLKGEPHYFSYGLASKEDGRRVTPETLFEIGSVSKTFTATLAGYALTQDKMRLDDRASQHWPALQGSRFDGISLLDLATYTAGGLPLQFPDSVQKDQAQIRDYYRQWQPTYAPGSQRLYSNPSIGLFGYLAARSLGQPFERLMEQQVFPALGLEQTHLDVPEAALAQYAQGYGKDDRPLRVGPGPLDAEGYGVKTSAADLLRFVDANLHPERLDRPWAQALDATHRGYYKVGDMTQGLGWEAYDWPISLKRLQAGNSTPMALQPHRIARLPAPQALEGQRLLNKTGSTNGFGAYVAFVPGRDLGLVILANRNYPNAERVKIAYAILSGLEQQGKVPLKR
Beta-lactamase OXA-23, sequence (Q9L4P2 whole entry): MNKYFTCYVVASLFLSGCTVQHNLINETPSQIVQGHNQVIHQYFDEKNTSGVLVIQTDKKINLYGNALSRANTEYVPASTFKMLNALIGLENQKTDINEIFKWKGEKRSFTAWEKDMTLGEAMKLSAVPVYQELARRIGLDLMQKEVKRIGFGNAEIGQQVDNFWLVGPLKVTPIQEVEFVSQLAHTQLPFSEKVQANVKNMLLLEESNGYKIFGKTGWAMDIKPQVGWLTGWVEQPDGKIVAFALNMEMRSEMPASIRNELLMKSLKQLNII

Consider `O=C(O)/C=C/c1cccc([C@H](NC(=O)Cc2cccs2)B(O)O)c1`, for which the inhibitory constant (Ki) (in general, the dissociation constant of the complex between target and ligand, obtained from inhibition or displacement) in [1] turned out to be 3.8 µM; in [2], 0.003 µM; in test [3], 0.01 µM; in test [4] it was 0.106 µM.
For the compound `C[C@]12CNC(=O)[C@H]1N1C[C@@H](C2)N(OS(=O)(=O)[O-])C1=O.[Na+]`, the MIC (commonly the lowest concentration that inhibits growth of the organism) amounted to 2 µg/mL in the test on Escherichia coli [5]; 4 µg/mL with Escherichia coli [6]; 8 µg/mL in the test on Escherichia coli [7]; 4 µg/mL in the test on Escherichia coli [8]; 4 µg/mL in the test with Escherichia coli [9]; 4 µg/mL in the test with Escherichia coli [10]. Further, the MIC in the test with Escherichia coli [11], with Escherichia coli [12], in the test with Escherichia coli [13], in the test with Escherichia coli [14], in the test on Escherichia coli [15] and in the test with Escherichia coli [16] was 4 µg/mL each time.
For `O=C(Nc1cccc(-c2nnn[nH]2)c1)c1cc(C(F)(F)F)cc2[nH]cnc12`, the Ki on Beta-lactamase [17] was 387 µM; at Beta-lactamase TEM-1 [18] it was “Not Active”; in test [19] it was 478 µM; in test [20] it was 25.8 µM; on Beta-lactamase CTX-M-27, 0.28 µM; in test [21], 0.25 µM. Also, the Ki is 0.089 µM in [22], 0.085 µM on Beta-lactamase CTX-M-14 [23] and 97.3 µM in test [24].
Consider `O=C(Nc1cccc(-c2nnn[nH]2)c1)c1cccc(F)c1`, for which the Ki in [25] was determined as 2800 µM.
`CCC(=O)N[C@H]1Cc2cccc(C(=O)O)c2OB1O` [LEDABORBACTAM]: the half-maximal inhibitory concentration (IC50) (commonly the concentration that inhibits the measured activity by half) came to 0.08 µM in [26]; 0.018 µM in test [27]; 0.368 µM in test [28]; 9.04 µM in test [29]; 0.066 µM in test [30]; 38.1 µM in test [31]. Besides, the IC50 in test [32] is > 100 µM.
On to `CC1=C[C@H]2CN(C(=O)N2OS(=O)(=O)O)[C@@H]1C(N)=O`, for which the values for the half-maximal inhibitory concentration (IC50) (in [33]; in test [34]; against Beta-lactamase [35]) were 0.19 µM, 0.004 µM and 0.014 µM, respectively.
Regarding `O=C(O)C1=C(CSc2nnc(-c3ccc(-n4[se]c5ccccc5c4=O)cc3)[nH]2)CSC2[C@@H](NC(=O)c3ccccc3)C(=O)N12` (stereo not given in full), the IC50 in test [36] stood at 2.93 µM; in test [37] it was 0.28 µM; in [38] it was 4.86 µM; in test [39] it was 6.68 µM.
As for `O=C(CSc1nnc(-c2ccccc2C(=O)O)[nH]1)Nc1nc2ccccc2s1`, the figures for the half-inhibitory concentration (IC50) (in test [40]; in test [41]; at Beta-lactamase L1) were 20 µM, 1.2 µM and 32 µM, respectively.
On to `O=C(O)CN(CC(=O)O)CC(=O)O` [NITRILOTRIACETIC ACID], for which the IC50 was determined as 112 µM in test [42], 1.3 µM in test [43] and 2.4 µM in test [44].
For `NCCONC(=O)[C@@H]1CC[C@@H]2CN1C(=O)N2OS(=O)(=O)O` [NACUBACTAM], the IC50 at Beta-lactamase OXA-1 was found to be 3.05 µM; at Beta-lactamase CTX-M-14 [45], 0.01 µM; against Beta-lactamase [46], 0.845 µM; in [47], 0.096 µM; in test [48] it was 0.022 µM; in test [49], 1.4 µM. Also, the IC50 worked out at 0.015 µM in test [50]; 0.013 µM in [51]; 1.07 µM in test [52]; 46.4 µM against Beta-lactamase OXA-23; 0.869 µM in [53]; 0.026 µM against Beta-lactamase TEM-1 [54].
Take `NS(=O)(=O)C1CC[C@@H]2CN1C(=O)N2OS(=O)(=O)O` (stereo not given in full): the 50% inhibitory concentration (IC50) in [55] was found to be 0.116 µM; in [56], 0.044 µM; in test [57], 0.14 µM.
For `O=C(O)c1cn(CB(O)O)nn1`, the Ki in test [58] worked out at 6.1 µM. Moreover, the midpoint of inhibition in test [59], the IC50, lay at 4.72 µM.
In the case of `CC(c1nnn[nH]1)n1cnc2sc3c(c2c1=O)CCCC3` (single isomer, unassigned), the Ki in [60] worked out at 2540 µM; in test [61] it was 195 µM.
